Here are results for two compounds from US10736891B2, “Composition and method for treating chagas disease” (priority 2016, dated 2020).

Data set [1] is described as follows: Blood chemistries and liver biopsies under amiodarone/itraconazole, monkeys.
Data set [2] is described as follows: Blood chemistries and liver biopsies under amiodarone/itraconazole, dogs.
For data set [3] the following is noted: cited from earlier work.
The conditions of data set [4]: increase from 5 mg/kg to 10 mg/kg once daily; cited from earlier work.
The conditions of data set [5]: in vivo.
Experimental: Accordingly, prior to additional testing, a dosage of Itraconazole and Amiodarone was prepared in accordance with the above example, but with nanomilling of the Itraconazole before formulating into pharmaceutical compositions and administration to patients. In this example, a suspension of itraconazole was prepared and then subject to milling using a media mill such as disclosed in Kumar et al., J. Pharm. Sci. 104:3018-3028 (2015), wherein Itraconazole (1%, w/v) was suspended in a desired concentration of an aqueous stabilizer solution, and the prepared suspension was stirred for 30 minutes or more for complete wetting of the drug by the stabilizer solution. The suspension (e.g., 150 mL) was then wet milled or wet grinded using a conventional wet milling or grinding device, namely one manufactured by Netzsch of Exton, Pa. Using this equipment, the mill is operated at a suitable speed, e.g., 2500 rpm in a continuous mode for a time suitable to reduce particle size to a range of 1 and 400 nm, e.g., 75 minutes. The temperature of the sample was maintained at below 25° C. during the process, and two cooling bath recirculators were used, including one attached to the milling device and the other attached to suspension recirculation chambers. […]
A short description of data set [6]: in vivo. To be noted: human.

On to `CCCCc1oc2ccccc2c1C(=O)c1cc(I)c(OCCN(CC)CC)c(I)c1` [Amiodarone], for which, in data set [1], the arrythmias was found to be 0 and the “hepatic effects (multiple blood chemistries)” value is given as 0. Further, in data set [2], the arrythmias came to 0 and the “hepatic effects (multiple blood chemistries)” value stood at 0.

With `CCC(C)n1ncn(-c2ccc(N3CCN(c4ccc(OCC5COC(Cn6cncn6)(c6ccc(Cl)cc6Cl)O5)cc4)CC3)cc2)c1=O` (stereo not shown) [Itraconazole], the “Itraconazole plasma level when given with food compared with without food” value in data set [3] is on record as “higher”. Further, in data set [4], the “Itraconazole Cmax increase” value is 5-6 fold. Also, the “increase of bioavailability of itraconazole” value in data set [5] was determined as 2000%. In addition, the Cmax in data set [6] (5 mg/kg) worked out at 3550 ng/mL; in data set [6] (po, 10 mg/kg), 13500 ng/mL. Also, the “increase in plasma Itraconazole level compared with the Cmax of a previous study (Paniz-Mondolfi et al. 2009)” value in data set [6] (10 mg/kg) is recorded as 5-6 fold.

The Cmax is the maximum level reached in the sampled fluid or tissue.
